Measurements reported in the supplement of paper PMC11061612.

How the values were obtained:
AZD1390 = compound: CC(C)n1c(=O)n(C)c2cnc3cc(F)c(-c4ccc(OCCCN5CCCCC5)nc4)cc3c21 [AZD1390]; details: max 0.3 µM
In short: (§1)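 Cancer cell lines in 1536-well plates (7.5 μl DMEM/F12 or RPMI, 10% FBS) were held 24 hours at 37°C and 5% CO2 and then dosed for 72 hours at a final DMSO of typically 0.2%. Viability was taken from CellTiter-Glo 2.0 luminescence, scaled between blank-well and DMSO-well means. Curves were fitted as two-parameter logistic models with a non-linear mixed effects model, from which the single-agent IC50 was taken.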

Palbociclib = compound: CC(=O)c1c(C)c2cnc(Nc3ccc(N4CCNCC4)cn3)nc2n(C2CCCC2)c1=O [Palbociclib]; details: max 10 µM
In short: as §1

Dasatinib = compound: CC1=C(C(=CC=C1)Cl)NC(=O)C2=CN=C(S2)NC3=CC(=NC(=N3)C)N4CCN(CC4)CCO [Dasatinib]; details: max 2 µM
In short: as §1

Lapatinib = compound: CS(=O)(=O)CCNCc1ccc(-c2ccc3ncnc(Nc4ccc(OCc5cccc(F)c5)c(Cl)c4)c3c2)o1 [Lapatinib]; details: max 10 µM
In short: as §1

Prexasertib = compound: COc1cccc(OCCCN)c1-c1cc(Nc2cnc(C#N)cn2)n[nH]1 [Prexasertib]; details: max 1 µM
In short: as §1

Capivasertib = compound: C1CN(CCC1(C(=O)N[C@@H](CCO)C2=CC=C(C=C2)Cl)N)C3=NC=NC4=C3C=CN4 [Capivasertib]; details: max 10 µM
In short: as §1

AZD0156 = compound: CN(C)CCCOc1ccc(-c2ccc3ncc4c(c3c2)n(C2CCOCC2)c(=O)n4C)cn1 [AZD0156]
In short: as §1

Doxorubicin = compound: COc1cccc2c1C(=O)c1c(O)c3c(c(O)c1C2=O)C[C@@](O)(C(=O)CO)C[C@@H]3O[C@H]1C[C@H](N)[C@H](O)[C@H](C)O1 [Doxorubicin]; details: max 1 µM
In short: as §1

Savolitinib = compound: C[C@@H](c1ccc2nccn2c1)n1nnc2ncc(-c3cnn(C)c3)nc21 [Savolitinib]; details: max 1 µM
In short: as §1

SN-38 = compound: CCc1c2c(nc3ccc(O)cc13)-c1cc3c(c(=O)n1C2)COC(=O)[C@]3(O)CC [SN-38]; details: max 0.3 µM
In short: as §1

Taselisib = compound: Cc1nc(-c2cn3c(n2)-c2ccc(-c4cnn(C(C)(C)C(N)=O)c4)cc2OCC3)n(C(C)C)n1 [Taselisib]; details: max 10 µM
In short: as §1

AZD4320 = compound: CN(CC[C@H](CSC1=CC=CC=C1)NC2=C(C=C(C=C2)S(=O)(=O)NC(=O)C3=CC=C(C=C3)N4CCC(CC4)[C@H](C5=CC=CC=C5C6=CC=C(C=C6)Cl)O)S(=O)(=O)C(F)(F)F)CCO [AZD4320]; details: max 1 µM
In short: as §1

Trametinib = compound: CC(=O)Nc1cccc(-n2c(=O)n(C3CC3)c(=O)c3c(Nc4ccc(I)cc4F)n(C)c(=O)c(C)c32)c1 [Trametinib]; details: max 1 µM
In short: as §1

AZD8186 = compound: C[C@@H](Nc1cc(F)cc(F)c1)c1cc(C(=O)N(C)C)cc2c(=O)cc(N3CCOCC3)oc12 [AZD8186]
In short: as §1

AZD1775 = compound: C=CCn1c(=O)c2cnc(Nc3ccc(N4CCN(C)CC4)cc3)nc2n1-c1cccc(C(C)(C)O)n1 [AZD1775]
In short: as §1

Gefitinib = compound: COc1cc2ncnc(Nc3ccc(F)c(Cl)c3)c2cc1OCCCN1CCOCC1 [Gefitinib]; details: max 10 µM
In short: as §1

Olaparib = compound: O=C(c1cc(Cc2n[nH]c(=O)c3ccccc23)ccc1F)N1CCN(C(=O)C2CC2)CC1 [Olaparib]; details: max 10 µM
In short: as §1

AZD5153 = compound: COc1nnc2ccc(N3CCC(c4ccc(OCCN5CCN(C)C(=O)[C@H]5C)cc4)CC3)nn12 [AZD5153]; details: max 1 µM
In short: as §1

Crizotinib = compound: C[C@@H](Oc1cc(-c2cnn(C3CCNCC3)c2)cnc1N)c1c(Cl)ccc(F)c1Cl [Crizotinib]; details: max 10 µM
In short: as §1

AZD6738 = compound: C[C@@H]1COCCN1C2=NC(=NC(=C2)C3(CC3)[S@](=N)(=O)C)C4=C5C=CNC5=NC=C4 [AZD6738]; details: max 10 µM
In short: as §1

Selumetinib = compound: Cn1cnc2c(F)c(Nc3ccc(Br)cc3Cl)c(C(=O)NOCCO)cc21 [Selumetinib]; details: max 10 µM
In short: as §1

Alisertib = compound: COc1cc(Nc2ncc3c(n2)-c2ccc(Cl)cc2C(c2c(F)cccc2OC)=NC3)ccc1C(=O)O [Alisertib]; details: max 10 µM
In short: as §1

AZD2811 = compound: CCN(CCO)CCCOc1ccc2c(Nc3cc(CC(=O)Nc4cccc(F)c4)[nH]n3)ncnc2c1 [AZD2811]; details: max 1 µM
In short: as §1

AZD7648 = compound: Cc1cc2ncnn2cc1Nc1ncc2c(n1)n(C1CCOCC1)c(=O)n2C [AZD7648]; details: max 10 µM
In short: as §1

AZD5991 = compound: Cc1c2c(nn1C)CSCc1cc(n(C)n1)CSc1cc(c3ccccc3c1)OCCCc1c(C(=O)O)n(C)c3c-2c(Cl)ccc13 [AZD5991]; details: max 1 µM
In short: as §1

Venetoclax = compound: CC1(C)CCC(CN2CCN(c3ccc(C(=O)NS(=O)(=O)c4ccc(NCC5CCOCC5)c([N+](=O)[O-])c4)c(Oc4cnc5[nH]ccc5c4)c3)CC2)=C(c2ccc(Cl)cc2)C1 [Venetoclax]; details: max 1 µM
In short: as §1

SG3199 = compound: CC1=CN2[C@@H](C1)C=NC3=CC(=C(C=C3C2=O)OC)OCCCCCOC4=C(C=C5C(=C4)N=C[C@@H]6CC(=CN6C5=O)C)OC [SG3199]; details: max 0.001 µM
In short: as §1

Paclitaxel = compound: CC(=O)O[C@H]1C(=O)[C@@]2(C)[C@H]([C@H](OC(=O)c3ccccc3)[C@]3(O)C[C@H](OC(=O)[C@H](O)[C@@H](NC(=O)c4ccccc4)c4ccccc4)C(C)=C1C3(C)C)[C@]1(OC(C)=O)CO[C@@H]1C[C@@H]2O [Paclitaxel]; details: max 3 µM
In short: as §1

AZD5363 = compound: C1CN(CCC1(C(=O)N[C@@H](CCO)C2=CC=C(C=C2)Cl)N)C3=NC=NC4=C3C=CN4 [AZD5363]; details: max 10 µM
In short: as §1

[1] = compound: O=C(Nc1ccc2[nH]nc(-c3ccncc3)c2c1)[C@@H]1CCN(CC(=O)N2CCN(c3ccc(-c4ncccn4)cc3)CC2)C1; details: max 5 µM
In short: as §1

MK-2206 = compound: NC1(c2ccc(-c3nc4ccn5c(=O)[nH]nc5c4cc3-c3ccccc3)cc2)CCC1 [MK-2206]; details: max 10 µM
In short: as §1

Gemcitabine = compound: Nc1ccn([C@@H]2O[C@H](CO)[C@@H](O)C2(F)F)c(=O)n1 [Gemcitabine]; details: max 0.3 µM
In short: as §1

Etoposide = compound: COc1cc([C@@H]2c3cc4c(cc3[C@@H](O[C@@H]3O[C@@H]5CO[C@@H](C)O[C@H]5[C@H](O)[C@H]3O)[C@H]3COC(=O)[C@H]23)OCO4)cc(OC)c1O [Etoposide]; details: max 10 µM
In short: as §1

Carboplatin = compound: C1CC(C1)(C(=O)[O-])C(=O)[O-].N.N.[Pt+2] [Carboplatin]; details: max 10 µM
In short: as §1

5-Fluorouracil = compound: O=c1[nH]cc(F)c(=O)[nH]1 [5-Fluorouracil]; details: max 20 µM
In short: as §1

SRA737 = compound: N#Cc1cnc(Nc2cc(NC[C@H]3CNCCO3)c(C(F)(F)F)cn2)cn1 [SRA737]; details: max 10 µM
In short: as §1

Cell Line | IC50, cell viability 72 h (AZD1390) [nM] | IC50, cell viability 72 h (Palbociclib) [nM] | IC50, cell viability 72 h (Dasatinib) [nM] | IC50, cell viability 72 h (Lapatinib) [nM] | IC50, cell viability 72 h (Prexasertib) [nM] | IC50, cell viability 72 h (Capivasertib) [nM] | IC50, cell viability 72 h (AZD0156; max 3 µM) [nM] | IC50, cell viability 72 h (Doxorubicin) [nM] | IC50, cell viability 72 h (Savolitinib) [nM] | IC50, cell viability 72 h (SN-38) [nM] | IC50, cell viability 72 h (Taselisib) [nM] | IC50, cell viability 72 h (AZD4320) [nM] | IC50, cell viability 72 h (Trametinib) [nM] | IC50, cell viability 72 h (AZD8186; max 3 µM) [nM] | IC50, cell viability 72 h (AZD1775; max 3 µM) [nM] | IC50, cell viability 72 h (Gefitinib) [nM] | IC50, cell viability 72 h (Olaparib) [nM] | IC50, cell viability 72 h (AZD5153) [nM] | IC50, cell viability 72 h (Crizotinib) [nM] | IC50, cell viability 72 h (AZD6738) [nM] | IC50, cell viability 72 h (Selumetinib) [nM] | IC50, cell viability 72 h (Alisertib) [nM] | IC50, cell viability 72 h (AZD2811) [nM] | IC50, cell viability 72 h (AZD7648) [nM] | IC50, cell viability 72 h (AZD5991) [nM] | IC50, cell viability 72 h (Venetoclax) [nM] | IC50, cell viability 72 h (SG3199) [nM] | IC50, cell viability 72 h (Paclitaxel) [nM] | IC50, cell viability 72 h (AZD5363) [nM] | IC50, cell viability 72 h [1] [nM] | IC50, cell viability 72 h (MK-2206) [nM] | IC50, cell viability 72 h (Gemcitabine) [nM] | IC50, cell viability 72 h (Etoposide) [nM] | IC50, cell viability 72 h (Carboplatin) [nM] | IC50, cell viability 72 h (AZD8186; max 10 µM) [nM] | IC50, cell viability 72 h (5-Fluorouracil) [nM] | IC50, cell viability 72 h (SRA737) [nM] | IC50, cell viability 72 h (AZD0156; max 1 µM) [nM] | IC50, cell viability 72 h (AZD1775; max 1 µM) [nM]
HEC-1 (Endometrial Carcinoma) | > 300 | > 10000 | > 2000 | > 10000 | 493 | > 10000 | > 3000 | > 1000 | > 1000 | > 300 | > 10000 | > 1000 | > 1000 | > 3000 | 1810 | > 10000 | > 10000 | 881 | > 10000 | > 10000 | > 10000 | > 10000 | > 1000 | > 10000 | > 1000 | > 1000 | > 1 | – | – | – | – | – | – | – | – | – | – | – | –
KE-37 (T-Lymphoblastic Leukemia) | > 300 | 3850 | > 2000 | 8530 | 4.58 | 1100 | > 3000 | 53.8 | > 1000 | 1.86 | 3110 | 28.3 | > 1000 | > 3000 | 129 | > 10000 | > 10000 | 210 | 3220 | 403 | > 10000 | 125 | 20.5 | 8540 | 267 | > 1000 | > 1 | – | – | – | – | – | – | – | – | – | – | – | –
LB996-RCC (Kidney Carcinoma) | > 300 | > 10000 | 188 | > 10000 | 167 | 5320 | > 3000 | 625 | > 1000 | 8.64 | 1740 | > 1000 | > 1000 | > 3000 | 403 | > 10000 | > 10000 | > 1000 | > 10000 | 9940 | > 10000 | 4590 | > 1000 | > 10000 | > 1000 | > 1000 | > 1 | – | – | – | – | – | – | – | – | – | – | – | –
SK-PN-DW (Other Solid Carcinomas) | > 300 | > 10000 | > 2000 | > 10000 | 5.83 | – | > 3000 | 199 | > 1000 | 4.05 | 4420 | > 1000 | > 1000 | – | 1590 | > 10000 | > 10000 | 562 | 4410 | 558 | > 10000 | 119 | 191 | > 10000 | 70 | 757 | > 1 | 11 | 4780 | > 5000 | > 10000 | > 300 | 1530 | > 10000 | > 10000 | 5010 | 986 | – | –
TE-8 (Esophageal Squamous Cell Carcinoma) | > 300 | > 10000 | 362 | > 10000 | 24.3 | – | – | > 1000 | > 1000 | 169 | 2650 | > 1000 | 633 | – | – | > 10000 | > 10000 | > 1000 | > 10000 | 4150 | > 10000 | 5140 | > 1000 | > 10000 | > 1000 | > 1000 | > 1 | 109 | > 10000 | 3840 | > 10000 | > 300 | > 10000 | > 10000 | > 10000 | > 20000 | > 10000 | > 1000 | 503
VAL (B-Cell Non-Hodgkin's Lymphoma) | > 300 | 2660 | 91.9 | > 10000 | 6.12 | – | > 3000 | 28 | > 1000 | 1.77 | 2280 | 36.5 | > 1000 | – | 416 | > 10000 | 8570 | 61.8 | 4620 | 1030 | > 10000 | 60.6 | 141 | 8520 | 446 | 31.5 | > 1 | 57.3 | 5130 | > 5000 | 1870 | 8.94 | 261 | > 10000 | 2450 | > 20000 | 1470 | – | –
